Several values for one entry are separate records, joined by “and”; a condition that tells them apart may be missing. Equal values may be shown once. One block for each compound: values may come before it.
Legend:
OVCAR-4 = assay: Anticancer activity against human OVCAR-4 cells assessed as cell viability incubated for 24 hrs by MTT assay; assay type: functional, cell-based; details: OVCAR-4, 24 h
ACHN = assay: Anticancer activity against human ACHN cells assessed as cell viability incubated for 24 hrs by MTT assay; assay type: functional, cell-based
NCI-H460 = assay: Anticancer activity against human NCI-H460 cells assessed as cell viability incubated for 24 hrs by MTT assay; assay type: functional, cell-based
[1] = molecular target: Receptor tyrosine-protein kinase erbB-2 (Homo sapiens, UniProt P04626); assay: Inhibition of ErbB2 (unknown origin) pre-incubated for 5 mins followed by substrate addition and measured after 30 mins in presence of ATP by microtitre plate reader analysis
[2] = molecular target: Epidermal growth factor receptor (Homo sapiens, UniProt P00533, L858R/T790M); assay: Inhibition of EGFR L858R/T790M double mutant (unknown origin) in presence of ATP by ADP-Glo assay
[3] = molecular target: T1, Tyrosine-protein kinase JAK3 (Homo sapiens) (UniProt P52333); assay: Inhibition of JAK3 (unknown origin)
T1 sequence (whole entry): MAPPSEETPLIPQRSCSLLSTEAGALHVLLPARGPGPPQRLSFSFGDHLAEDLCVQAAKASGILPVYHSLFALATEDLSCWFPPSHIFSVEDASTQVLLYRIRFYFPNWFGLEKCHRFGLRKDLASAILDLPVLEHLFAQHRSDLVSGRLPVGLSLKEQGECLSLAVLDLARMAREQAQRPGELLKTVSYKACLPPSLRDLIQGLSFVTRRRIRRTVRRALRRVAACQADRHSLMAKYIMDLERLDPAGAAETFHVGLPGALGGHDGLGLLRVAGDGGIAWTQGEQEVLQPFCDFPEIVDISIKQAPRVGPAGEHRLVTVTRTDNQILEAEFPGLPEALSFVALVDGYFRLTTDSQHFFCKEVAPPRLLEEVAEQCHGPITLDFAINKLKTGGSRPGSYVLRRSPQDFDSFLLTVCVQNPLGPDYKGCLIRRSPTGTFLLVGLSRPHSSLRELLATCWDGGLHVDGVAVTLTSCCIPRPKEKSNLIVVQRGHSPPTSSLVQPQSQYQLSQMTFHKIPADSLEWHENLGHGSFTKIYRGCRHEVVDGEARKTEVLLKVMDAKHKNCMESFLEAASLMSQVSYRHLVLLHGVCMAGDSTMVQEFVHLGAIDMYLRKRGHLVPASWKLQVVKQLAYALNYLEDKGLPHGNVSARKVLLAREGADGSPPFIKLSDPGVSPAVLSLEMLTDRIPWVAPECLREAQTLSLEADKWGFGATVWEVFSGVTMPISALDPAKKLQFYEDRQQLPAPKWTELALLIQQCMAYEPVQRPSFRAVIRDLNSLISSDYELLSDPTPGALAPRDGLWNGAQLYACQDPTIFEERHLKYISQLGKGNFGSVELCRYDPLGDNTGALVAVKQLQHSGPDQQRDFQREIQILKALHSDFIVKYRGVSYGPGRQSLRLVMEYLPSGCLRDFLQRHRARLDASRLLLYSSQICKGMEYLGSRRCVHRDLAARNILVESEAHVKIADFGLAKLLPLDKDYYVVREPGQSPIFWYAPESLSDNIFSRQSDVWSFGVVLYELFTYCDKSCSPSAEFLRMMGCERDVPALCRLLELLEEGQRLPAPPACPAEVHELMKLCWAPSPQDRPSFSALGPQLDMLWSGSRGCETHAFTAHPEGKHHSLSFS

NCI-H1975 [4] = assay: Growth inhibition of human NCI-H1975 cells harbouring EGFR L858R/T790M double mutant; assay type: functional
[5] = molecular target: Epidermal growth factor receptor (Homo sapiens, UniProt P00533, C797S/L858R/T790M); assay: Inhibition of EGFR L858R/T790M/C797S triple mutant (unknown origin)
[6] = tested on: Epidermal growth factor receptor (Homo sapiens), P00533 [L858R]; assay: Inhibition of EGFR L858R mutant (unknown origin) relative to control; details: concentration not given here
[7] = tested on: Epidermal growth factor receptor (Homo sapiens), P00533 [L858R,T790M]; assay: Inhibition of EGFR T790M/L858R double mutant (unknown origin) relative to control
NCI-H1975 [8] = assay: Antiproliferative activity against human NCI-H1975 cells assessed as cell growth inhibition incubated for 72 hrs by MTT assay; assay type: functional, cell-based; details: NCI-H1975, 72 h
HepG2 = assay: Anticancer activity against human HepG2 cells; assay type: functional, cell-based
PC-3 = assay: Anticancer activity against human PC-3 cells; assay type: functional, cell-based
HCT-116 = assay: Anticancer activity against human HCT-116 cells; assay type: functional, cell-based
[9] = molecular target: T2, Epidermal growth factor receptor (Homo sapiens, UniProt P00533); assay: Inhibition of EGFR (unknown origin) at 50 uM relative to control
[10] = molecular target: T2, Epidermal growth factor receptor; assay: Inhibition of EGFR (unknown origin) at 100 uM relative to control
MCF7 [11] = assay: Potency index,ratio of test compound IC50 to Erlotinib IC50 for antiproliferative activity against human MCF7 cells incubated for 48 hrs by MTT assay; assay type: functional
MCF7 [12] = assay: Potency index,ratio of test compound IC50 to Doxorubicin IC50 for antiproliferative activity against human MCF7 cells incubated for 48 hrs by MTT assay; assay type: functional
MCF7 [13] = assay: Anticancer activity against human MCF7 cells incubated for 48 hrs by MTT assay; assay type: functional, cell-based; details: MCF7, 48 h
[14] = molecular target: T2, Epidermal growth factor receptor; assay: Inhibition of recombinant EGFR (unknown origin) using TMB as substrate incubated for 3 hrs in presence of ATP by ELISA
HCC827 = assay: Antiproliferative activity against human HCC827 assessed as cell growth inhibition; assay type: functional, cell-based
NCI-H1975 [15] = assay: Antiproliferative activity against human NCI-H1975 assessed as cell growth inhibition; assay type: functional, cell-based
BaF3 [16] = assay: Antiproliferative activity against mouse BAF3 cells harboring EGFR L858R/T790M/C797S triple mutant; assay type: functional, cell-based
BaF3 [17] = assay: Antiproliferative activity against mouse BAF3 cells harboring EGFR 19D/T790M/C797S triple mutant; assay type: functional, cell-based
[18] = molecular target: Epidermal growth factor receptor (Homo sapiens, UniProt P00533, T790M); assay: Inhibition of EGFR T790M mutant (unknown origin)
[19] = molecular target: T2, Epidermal growth factor receptor; assay: Inhibition of recombinant C-terminal His-tagged/N-terminal GST-tagged human EGFR expressed in sf9 insect cells using poly(Glu, Tyr) sodium salt (4:1, Glu:Tyr) as a substrate measured after 40 mins by Kinase-Glo reagent based luminescence analysis
[20] = Inhibition of recombinant N-terminal GST-tagged human HER2 expressed in sf9 insect cells using poly(Glu, Tyr) sodium salt (4:1, Glu:Tyr) as a substrate measured after 40 mins by Kinase-Glo reagent based luminescence analysis
EKVX = assay: Anticancer activity against human EKVX assessed as cell growth inhibition at 10 uM incubated for 48 hrs relative to control; assay type: functional; details: pooled result: one value given for 8 cell lines, strains, targets or settings

T2 sequence (P00533 whole entry): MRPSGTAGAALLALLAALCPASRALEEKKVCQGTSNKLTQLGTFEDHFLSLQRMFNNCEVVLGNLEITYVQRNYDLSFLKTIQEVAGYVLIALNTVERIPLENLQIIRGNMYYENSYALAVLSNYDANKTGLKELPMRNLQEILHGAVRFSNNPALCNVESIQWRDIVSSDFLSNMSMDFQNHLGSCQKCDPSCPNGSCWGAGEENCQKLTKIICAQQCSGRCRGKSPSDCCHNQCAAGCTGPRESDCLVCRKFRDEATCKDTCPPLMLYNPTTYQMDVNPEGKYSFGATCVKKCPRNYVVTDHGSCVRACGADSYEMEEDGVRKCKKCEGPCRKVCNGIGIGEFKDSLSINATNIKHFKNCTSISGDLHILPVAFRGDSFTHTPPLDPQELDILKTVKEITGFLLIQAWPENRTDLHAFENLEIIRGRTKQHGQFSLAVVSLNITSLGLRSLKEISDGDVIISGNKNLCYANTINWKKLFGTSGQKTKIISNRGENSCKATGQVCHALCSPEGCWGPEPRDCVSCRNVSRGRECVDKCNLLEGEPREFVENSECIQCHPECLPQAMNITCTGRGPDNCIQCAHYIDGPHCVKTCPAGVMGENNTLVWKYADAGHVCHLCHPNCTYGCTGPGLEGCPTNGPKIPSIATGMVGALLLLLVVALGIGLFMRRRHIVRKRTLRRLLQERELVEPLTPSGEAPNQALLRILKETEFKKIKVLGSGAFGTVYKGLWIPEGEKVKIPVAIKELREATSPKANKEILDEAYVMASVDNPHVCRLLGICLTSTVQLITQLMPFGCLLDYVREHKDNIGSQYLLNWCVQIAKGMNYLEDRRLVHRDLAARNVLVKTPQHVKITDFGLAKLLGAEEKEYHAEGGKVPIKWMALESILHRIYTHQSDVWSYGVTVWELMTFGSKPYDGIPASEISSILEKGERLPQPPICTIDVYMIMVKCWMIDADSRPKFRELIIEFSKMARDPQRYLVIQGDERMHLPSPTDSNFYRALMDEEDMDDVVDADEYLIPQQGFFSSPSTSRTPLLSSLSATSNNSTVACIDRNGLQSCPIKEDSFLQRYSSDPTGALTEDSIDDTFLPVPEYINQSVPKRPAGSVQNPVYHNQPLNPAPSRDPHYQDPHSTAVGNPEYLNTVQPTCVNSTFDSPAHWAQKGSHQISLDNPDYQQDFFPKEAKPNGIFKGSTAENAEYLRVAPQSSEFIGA
Epidermal growth factor receptor (Homo sapiens), P00533 [L858R,T790M], sequence (P00533 whole entry T790M/L858R, looked up): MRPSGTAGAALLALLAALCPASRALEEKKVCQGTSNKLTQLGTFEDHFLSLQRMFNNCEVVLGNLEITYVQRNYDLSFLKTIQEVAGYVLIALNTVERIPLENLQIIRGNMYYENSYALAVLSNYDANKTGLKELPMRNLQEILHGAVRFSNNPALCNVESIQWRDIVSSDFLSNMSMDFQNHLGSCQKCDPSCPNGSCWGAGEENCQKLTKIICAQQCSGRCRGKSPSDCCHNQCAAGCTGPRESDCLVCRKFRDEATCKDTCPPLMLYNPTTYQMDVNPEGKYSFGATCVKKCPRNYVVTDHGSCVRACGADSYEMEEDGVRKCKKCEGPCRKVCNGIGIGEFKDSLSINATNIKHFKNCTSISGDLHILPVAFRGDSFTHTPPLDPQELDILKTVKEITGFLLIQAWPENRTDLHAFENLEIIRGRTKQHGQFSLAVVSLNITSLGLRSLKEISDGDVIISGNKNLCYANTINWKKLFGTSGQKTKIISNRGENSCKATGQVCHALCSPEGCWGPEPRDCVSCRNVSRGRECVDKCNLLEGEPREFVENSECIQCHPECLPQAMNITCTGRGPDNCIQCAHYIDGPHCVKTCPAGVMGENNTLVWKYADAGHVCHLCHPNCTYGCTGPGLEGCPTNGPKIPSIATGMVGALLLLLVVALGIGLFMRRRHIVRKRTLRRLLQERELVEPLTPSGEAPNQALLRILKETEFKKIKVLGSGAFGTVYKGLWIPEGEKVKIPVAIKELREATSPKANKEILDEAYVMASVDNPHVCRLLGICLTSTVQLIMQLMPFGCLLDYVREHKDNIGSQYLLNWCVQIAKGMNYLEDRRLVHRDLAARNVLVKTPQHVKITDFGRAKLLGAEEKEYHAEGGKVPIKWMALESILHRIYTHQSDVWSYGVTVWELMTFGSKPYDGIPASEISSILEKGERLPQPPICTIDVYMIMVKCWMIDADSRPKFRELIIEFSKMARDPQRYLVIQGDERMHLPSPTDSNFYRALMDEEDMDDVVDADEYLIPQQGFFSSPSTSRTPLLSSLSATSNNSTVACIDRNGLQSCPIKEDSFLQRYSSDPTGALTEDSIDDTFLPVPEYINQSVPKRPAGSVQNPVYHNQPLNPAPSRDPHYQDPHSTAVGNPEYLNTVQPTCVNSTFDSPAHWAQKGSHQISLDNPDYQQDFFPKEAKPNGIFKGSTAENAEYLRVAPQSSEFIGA
Epidermal growth factor receptor (Homo sapiens), P00533 [L858R], sequence (P00533 whole entry L858R): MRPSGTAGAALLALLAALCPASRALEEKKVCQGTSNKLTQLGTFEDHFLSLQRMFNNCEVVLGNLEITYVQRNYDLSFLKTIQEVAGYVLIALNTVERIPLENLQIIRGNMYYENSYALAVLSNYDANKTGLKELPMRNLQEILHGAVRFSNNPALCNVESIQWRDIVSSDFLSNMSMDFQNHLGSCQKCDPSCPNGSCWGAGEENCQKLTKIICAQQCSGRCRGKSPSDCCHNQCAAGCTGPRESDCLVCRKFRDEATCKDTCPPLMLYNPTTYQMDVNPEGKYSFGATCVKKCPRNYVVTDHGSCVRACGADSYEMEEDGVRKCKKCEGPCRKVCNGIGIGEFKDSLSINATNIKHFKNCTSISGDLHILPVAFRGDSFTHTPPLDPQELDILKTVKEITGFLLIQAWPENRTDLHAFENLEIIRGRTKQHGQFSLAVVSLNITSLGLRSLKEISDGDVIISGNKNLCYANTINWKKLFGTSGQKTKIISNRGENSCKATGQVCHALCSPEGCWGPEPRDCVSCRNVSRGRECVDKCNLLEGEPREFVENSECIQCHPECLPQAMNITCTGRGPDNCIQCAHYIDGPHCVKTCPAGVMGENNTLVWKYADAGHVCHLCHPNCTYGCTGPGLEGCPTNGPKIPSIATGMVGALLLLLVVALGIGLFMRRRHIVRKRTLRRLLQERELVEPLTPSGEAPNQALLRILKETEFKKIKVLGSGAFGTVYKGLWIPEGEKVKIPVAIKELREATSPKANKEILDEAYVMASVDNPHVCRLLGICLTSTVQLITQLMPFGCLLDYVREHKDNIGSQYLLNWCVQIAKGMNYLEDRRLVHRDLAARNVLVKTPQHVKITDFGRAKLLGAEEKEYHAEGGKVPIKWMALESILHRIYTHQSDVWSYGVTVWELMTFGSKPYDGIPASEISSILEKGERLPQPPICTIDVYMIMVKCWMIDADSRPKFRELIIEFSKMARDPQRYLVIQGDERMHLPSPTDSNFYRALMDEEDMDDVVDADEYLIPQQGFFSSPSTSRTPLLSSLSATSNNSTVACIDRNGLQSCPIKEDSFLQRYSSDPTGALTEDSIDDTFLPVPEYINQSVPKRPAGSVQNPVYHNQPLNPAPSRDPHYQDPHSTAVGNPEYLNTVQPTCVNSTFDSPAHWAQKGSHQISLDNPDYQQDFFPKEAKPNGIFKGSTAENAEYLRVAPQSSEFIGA
Epidermal growth factor receptor (Homo sapiens, UniProt P00533, T790M), sequence (P00533 25-1210 T790M limits assumed): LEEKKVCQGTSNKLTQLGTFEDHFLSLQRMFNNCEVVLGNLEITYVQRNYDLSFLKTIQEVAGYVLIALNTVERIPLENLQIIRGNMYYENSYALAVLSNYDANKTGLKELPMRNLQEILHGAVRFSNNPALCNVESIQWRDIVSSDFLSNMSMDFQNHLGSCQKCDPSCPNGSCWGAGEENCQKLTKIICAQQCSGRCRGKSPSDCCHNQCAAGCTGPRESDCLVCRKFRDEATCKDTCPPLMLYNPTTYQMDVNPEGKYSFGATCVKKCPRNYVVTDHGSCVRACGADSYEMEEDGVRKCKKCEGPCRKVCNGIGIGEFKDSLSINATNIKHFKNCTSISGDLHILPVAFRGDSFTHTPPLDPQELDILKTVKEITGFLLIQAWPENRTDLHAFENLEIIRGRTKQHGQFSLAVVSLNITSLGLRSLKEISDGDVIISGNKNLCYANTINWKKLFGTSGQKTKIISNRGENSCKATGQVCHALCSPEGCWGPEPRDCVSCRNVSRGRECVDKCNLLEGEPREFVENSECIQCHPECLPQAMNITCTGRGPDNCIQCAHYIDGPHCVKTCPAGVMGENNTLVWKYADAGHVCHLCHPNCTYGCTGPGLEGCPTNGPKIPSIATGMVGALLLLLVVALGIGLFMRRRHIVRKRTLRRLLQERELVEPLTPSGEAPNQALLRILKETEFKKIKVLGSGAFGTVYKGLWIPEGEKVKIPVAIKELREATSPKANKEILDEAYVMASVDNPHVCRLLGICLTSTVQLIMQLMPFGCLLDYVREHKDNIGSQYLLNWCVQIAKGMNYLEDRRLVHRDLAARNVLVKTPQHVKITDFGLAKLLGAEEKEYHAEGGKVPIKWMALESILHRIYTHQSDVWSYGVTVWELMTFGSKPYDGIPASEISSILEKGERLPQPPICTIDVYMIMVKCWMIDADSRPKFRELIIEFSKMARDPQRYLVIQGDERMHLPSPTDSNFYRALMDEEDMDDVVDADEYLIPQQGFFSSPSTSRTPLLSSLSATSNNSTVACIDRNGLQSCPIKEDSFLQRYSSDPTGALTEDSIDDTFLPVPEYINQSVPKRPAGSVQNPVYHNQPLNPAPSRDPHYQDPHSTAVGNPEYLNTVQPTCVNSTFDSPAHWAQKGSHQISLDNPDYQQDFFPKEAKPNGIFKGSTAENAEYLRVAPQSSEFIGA

Compound: Cc1nn(-c2ccc(F)cc2)c2c(Nc3ccc(F)c(Cl)c3)ncnc12
- IC50 (OVCAR-4): 1740 nM
- IC50 (ACHN): 5530 nM
- IC50 (NCI-H460): 1740 nM and 4440 nM
- IC50 [1]: 250 nM

Compound: CC#CC1=Nc2cc(Nc3nccc(-c4cn(C)c5ccccc45)n3)ccc2C(C)(C)O1
- IC50 [3]: 60 nM

Compound: CCOC(=O)c1cnc(NC(N)=S)nc1C
- inhibition [6]: 62%
- inhibition [7]: 62%

Compound: Cc1ccc(-c2cc(-c3ccc(Cl)cc3)nc3nc(-n4[nH]c(C)cc4=O)[nH]c(=O)c23)cc1
- IC50 (HepG2): 300 nM
- IC50 (PC-3): 6600 nM
- IC50 (HCT-116): 7000 nM
- inhibition [9]: 81%
- inhibition [10]: 86%

Compound: CCOC(=O)c1cnc(NC(N)=S)[nH]c1=O
- inhibition [6]: 62%
- inhibition [7]: 62%

Compound: C=CC(=O)Nc1cccc(Oc2nc(Nc3ccc(OC)cc3)nc3c2CSCC3)c1
- Ratio IC50 (MCF7 [11]): 1.73
- Ratio IC50 (MCF7 [12]): 4.64
- IC50 (MCF7 [13]): 660 nM
- IC50 [14]: 28 nM

Compound: CN(C)C1CCN(c2ccc(Nc3cc4c(N5CCC(CO)CC5)nc(Nc5ccc(F)cc5)nc4cn3)nc2)CC1
- IC50 (HCC827): 40 nM
- IC50 (NCI-H1975 [15]): 40 nM

Compound: CCC(=O)NC1CCC(N2C(=O)N(c3ccccc3Cl)Cc3cnc(Nc4ccc(N5CCN(C)CC5)c(C)c4)nc32)CC1 (centres undefined)
- IC50 (BaF3 [16]): 290 nM
- IC50 (BaF3 [17]): 310 nM

Compound: CC#CC(=O)Nc1ccc(Nc2nccc(-c3cn(C)c4ccccc34)n2)cc1
- IC50 [18]: 220 nM

Compound: C=CC(=O)Nc1ccc(Nc2nccc(-c3cn(C)c4ccccc34)n2)cc1
- IC50 [18]: 180 nM

Compound: Fc1cccc(COc2ccc(Nc3ncnc4sc5c(c34)CCCC5)cc2Cl)c1
- IC50 [19]: 200 nM
- IC50 [20]: 500 nM
- inhibition at 10 µM (EKVX): 42%

The next lines start with the values.

- IC50 [2]: 9.1 nM
Compound: C=CC(=O)Nc1cccc(Nc2nc(Nc3ccc(SCC(=O)N4CCOCC4)cc3)ncc2Cl)c1

- GI50 (NCI-H1975 [4]): 490 nM
Compound: C=CC(=O)N1CCCC(n2nc(-c3cccc4ccccc34)c3c(N)ncnc32)C1 (centres undefined)

- GI50 (NCI-H1975 [4]): 140 nM
- IC50 [5]: 88 nM
Compound: C=CC(=O)N1CCCC(n2nc(-c3ccc4ccccc4c3)c3c(N)ncnc32)C1 (centres undefined)

- IC50 [2]: 27.5 nM
- IC50 (NCI-H1975 [8]): 74 nM
Compound: C=CC(=O)Nc1cccc(Nc2nc(Nc3ccc(SCCCN4CCOCC4)cc3)ncc2Cl)c1

- GI50 (NCI-H1975 [4]): 210 nM
Compound: C=CC(=O)N1CCCC(n2nc(-c3cn(C)c4ccccc34)c3c(N)ncnc32)C1 (centres undefined)
